Laboratory results reported in PubChem BioAssay AID1918958 (Molecular Pharmacology Branch, DTP, NCI, 2023).

System: NCI-H196 complex spheroid viability
Experiment: Anticancer human tumor NCI-H196 cell line growth inhibition [LSD1];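 also: spheroids exposed to agents for 7 days before readout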;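 as to viability, T/C: 100% = DMSO vehicle control viability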
Conditions: for IC50: curve of first compound; for viability, T/C: stronger effect = lower value
Procedure, shortened: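 Complex spheroids of tumor cells with HUVEC and human MSCs, exposed to iadademstat combined with other agents. Each agent tested in half-log steps from near clinical Cmax (else 10 microM top), DMSO ≤0.25%.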

COc1cc(Nc2ncc3c(n2)-c2ccc(Cl)cc2C(c2c(F)cccc2OC)=NC3)ccc1C(=O)O + NC1CC1c1ccc(-c2cccc(O)c2)cc1
IC50 (second compound 0.1 µM): > 1000 nM | IC50 (second compound 0.316 µM): > 1000 nM | IC50 (second compound 1 µM): > 1000 nM | IC50 (second compound 3.16 µM): > 1000 nM | IC50 (second compound 10 µM): > 1000 nM | viability, T/C (second compound 0.1 µM, first compound 0.00316 µM): 88.2% | viability, T/C (second compound 0.1 µM, first compound 0.01 µM): 92.9% | viability, T/C (second compound 0.1 µM, first compound 0.0316 µM): 105% | viability, T/C (second compound 0.1 µM, first compound 0.1 µM): 104% | viability, T/C (second compound 0.1 µM, first compound 0.316 µM): 121% | viability, T/C (second compound 0.1 µM, first compound 1 µM): 143% | viability, T/C (second compound 0.316 µM, first compound 0.00316 µM): 87.3% | viability, T/C (second compound 0.316 µM, first compound 0.01 µM): 97.6% | viability, T/C (second compound 0.316 µM, first compound 0.0316 µM): 109% | viability, T/C (second compound 0.316 µM, first compound 0.1 µM): 113% | viability, T/C (second compound 0.316 µM, first compound 0.316 µM): 120% | viability, T/C (second compound 0.316 µM, first compound 1 µM): 119% | viability, T/C (second compound 1 µM, first compound 0.00316 µM): 93% | viability, T/C (second compound 1 µM, first compound 0.01 µM): 115% | viability, T/C (second compound 1 µM, first compound 0.0316 µM): 118% | viability, T/C (second compound 1 µM, first compound 0.1 µM): 126% | viability, T/C (second compound 1 µM, first compound 0.316 µM): 116% | viability, T/C (second compound 1 µM, first compound 1 µM): 118% | viability, T/C (second compound 3.16 µM, first compound 0.00316 µM): 98.5% | viability, T/C (second compound 3.16 µM, first compound 0.01 µM): 104% | viability, T/C (second compound 3.16 µM, first compound 0.0316 µM): 108% | viability, T/C (second compound 3.16 µM, first compound 0.1 µM): 110% | viability, T/C (second compound 3.16 µM, first compound 0.316 µM): 124% | viability, T/C (second compound 3.16 µM, first compound 1 µM): 112% | viability, T/C (second compound 10 µM, first compound 0.00316 µM): 98.3% | viability, T/C (second compound 10 µM, first compound 0.01 µM): 114% | viability, T/C (second compound 10 µM, first compound 0.0316 µM): 112% | viability, T/C (second compound 10 µM, first compound 0.1 µM): 119% | viability, T/C (second compound 10 µM, first compound 0.316 µM): 125% | viability, T/C (second compound 10 µM, first compound 1 µM): 118%

O=C(C=Cc1cccc(S(=O)(=O)Nc2ccccc2)c1)NO + NC1CC1c1ccc(-c2cccc(O)c2)cc1
IC50 (second compound 0.1 µM): 138 nM | IC50 (second compound 0.316 µM): 129 nM | IC50 (second compound 1 µM): 149 nM | IC50 (second compound 3.16 µM): 137 nM | IC50 (second compound 10 µM): 152 nM | viability, T/C (second compound 0.1 µM, first compound 0.00949 µM): 106% | viability, T/C (second compound 0.1 µM, first compound 0.03 µM): 91.2% | viability, T/C (second compound 0.1 µM, first compound 0.0949 µM): 70.3% | viability, T/C (second compound 0.1 µM, first compound 0.3 µM): 9.6% | viability, T/C (second compound 0.1 µM, first compound 0.949 µM): 0.22% | viability, T/C (second compound 0.1 µM, first compound 3 µM): 0.32% | viability, T/C (second compound 0.316 µM, first compound 0.00949 µM): 96.7% | viability, T/C (second compound 0.316 µM, first compound 0.03 µM): 92.6% | viability, T/C (second compound 0.316 µM, first compound 0.0949 µM): 64.3% | viability, T/C (second compound 0.316 µM, first compound 0.3 µM): 10.6% | viability, T/C (second compound 0.316 µM, first compound 0.949 µM): 0.24% | viability, T/C (second compound 0.316 µM, first compound 3 µM): 0.42% | viability, T/C (second compound 1 µM, first compound 0.00949 µM): 112% | viability, T/C (second compound 1 µM, first compound 0.03 µM): 89.5% | viability, T/C (second compound 1 µM, first compound 0.0949 µM): 75.1% | viability, T/C (second compound 1 µM, first compound 0.3 µM): 13.9% | viability, T/C (second compound 1 µM, first compound 0.949 µM): 1.06% | viability, T/C (second compound 1 µM, first compound 3 µM): 0.34% | viability, T/C (second compound 3.16 µM, first compound 0.00949 µM): 101% | viability, T/C (second compound 3.16 µM, first compound 0.03 µM): 101% | viability, T/C (second compound 3.16 µM, first compound 0.0949 µM): 68.6% | viability, T/C (second compound 3.16 µM, first compound 0.3 µM): 10% | viability, T/C (second compound 3.16 µM, first compound 0.949 µM): 1.82% | viability, T/C (second compound 3.16 µM, first compound 3 µM): 0.33% | viability, T/C (second compound 10 µM, first compound 0.00949 µM): 115% | viability, T/C (second compound 10 µM, first compound 0.03 µM): 92.6% | viability, T/C (second compound 10 µM, first compound 0.0949 µM): 76.3% | viability, T/C (second compound 10 µM, first compound 0.3 µM): 14.5% | viability, T/C (second compound 10 µM, first compound 0.949 µM): 0.36% | viability, T/C (second compound 10 µM, first compound 3 µM): 0.36%
